Active and inactive are the calls of the source.
Legend:
[1] = molecular target: T1, Leucine aminopeptidase (Plasmodium falciparum 3D7, UniProt Q8IL11); experiment: P. falciparum M17LAP inhibitors, primary screen, biochemical, fluorogenic H-Leu-NHMec substrate, 1536-well (AID 1619); format: functional
T1 sequence (Q8IL11 whole entry): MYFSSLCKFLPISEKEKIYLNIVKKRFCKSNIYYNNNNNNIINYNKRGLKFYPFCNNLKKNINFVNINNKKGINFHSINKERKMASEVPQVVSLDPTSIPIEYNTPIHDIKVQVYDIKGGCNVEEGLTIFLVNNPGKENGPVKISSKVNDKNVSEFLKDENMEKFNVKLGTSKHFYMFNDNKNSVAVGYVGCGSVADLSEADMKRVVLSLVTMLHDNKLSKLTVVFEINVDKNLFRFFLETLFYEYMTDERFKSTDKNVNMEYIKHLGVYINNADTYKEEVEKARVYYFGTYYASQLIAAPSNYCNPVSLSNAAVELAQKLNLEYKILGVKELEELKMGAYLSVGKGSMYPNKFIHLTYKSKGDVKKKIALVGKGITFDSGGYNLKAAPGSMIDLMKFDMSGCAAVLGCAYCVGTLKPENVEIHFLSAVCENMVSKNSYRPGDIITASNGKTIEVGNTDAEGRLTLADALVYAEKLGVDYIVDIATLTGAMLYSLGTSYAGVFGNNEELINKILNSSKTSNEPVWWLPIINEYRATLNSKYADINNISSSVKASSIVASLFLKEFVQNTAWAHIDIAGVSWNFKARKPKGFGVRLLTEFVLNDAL

[2] = molecular target: Cytochrome P450 3A4 (Homo sapiens, UniProt P08684);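 also: CYP3A4 tested as one member of a cytochrome P450 panel screen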
Cytochrome P450 3A4, sequence (P08684 whole entry): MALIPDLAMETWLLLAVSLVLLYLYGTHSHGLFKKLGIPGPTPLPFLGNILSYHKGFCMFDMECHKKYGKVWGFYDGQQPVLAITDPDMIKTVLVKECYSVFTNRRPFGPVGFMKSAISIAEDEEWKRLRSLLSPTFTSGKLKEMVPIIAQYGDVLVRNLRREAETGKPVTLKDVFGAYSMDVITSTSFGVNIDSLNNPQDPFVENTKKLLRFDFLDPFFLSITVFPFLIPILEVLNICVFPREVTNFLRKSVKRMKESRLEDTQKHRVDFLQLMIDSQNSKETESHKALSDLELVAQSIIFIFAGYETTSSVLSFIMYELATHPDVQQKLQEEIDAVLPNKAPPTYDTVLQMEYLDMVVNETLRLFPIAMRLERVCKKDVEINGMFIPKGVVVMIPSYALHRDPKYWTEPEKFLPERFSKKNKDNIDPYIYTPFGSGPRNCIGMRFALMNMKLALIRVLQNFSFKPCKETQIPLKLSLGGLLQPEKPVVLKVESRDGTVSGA

[3] = molecular target: FAD-linked sulfhydryl oxidase ALR (Homo sapiens, UniProt P55789); experiment: ALR-catalysed DTT oxidation blockers – biochemical, H2O2 detection, luminescence, cherry-pick, dose response (AID 493248)
FAD-linked sulfhydryl oxidase ALR, sequence (P55789 whole entry): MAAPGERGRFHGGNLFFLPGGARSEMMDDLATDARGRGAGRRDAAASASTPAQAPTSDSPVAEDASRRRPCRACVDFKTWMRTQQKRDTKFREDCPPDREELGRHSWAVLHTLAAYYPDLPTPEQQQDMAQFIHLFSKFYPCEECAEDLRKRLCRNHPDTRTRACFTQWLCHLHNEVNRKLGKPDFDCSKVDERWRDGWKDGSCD

[4] = viability of PTEN-deleted HCT116 cells – cell-based, HCT116 PTEN knockout, dose response (AID 1047); format: functional;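 also: HCT116 colon tumor cells with PTEN knocked out; cells exposed to compound for 60 hours before readout; potency for loss of cell viability measured by luminescence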
[5] = Vero E6 cell cytotoxicity, dose response, cytotoxicity control for non-replicating M. tuberculosis project, secondary assay (AID 492998); format: functional, VeroE6; conditions: Vero C1008
[6] = THP-1 cell cytotoxicity, dose response, cytotoxicity control for non-replicating M. tuberculosis project (AID 489025); format: functional
[7] = cells; format: functional
[8] = viability of HCT116 lacking mutant beta-catenin – cell-based, human colon tumor, dose response (AID 1045); format: functional;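 also: HCT116 colon tumor cells with beta catenin knocked out; cells exposed to compound for 60 hours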
[9] = molecular target: T2, Aminopeptidase N (Plasmodium falciparum FcB1/Columbia, UniProt O96935); experiment: malaria alanyl aminopeptidase activity blockers – biochemical, fluorogenic H-Leu-NHMec substrate, 1536-well (AID 1445); design: species or system Plasmodium falciparum 3D7, 3D7
T2 sequence (O96935 whole entry): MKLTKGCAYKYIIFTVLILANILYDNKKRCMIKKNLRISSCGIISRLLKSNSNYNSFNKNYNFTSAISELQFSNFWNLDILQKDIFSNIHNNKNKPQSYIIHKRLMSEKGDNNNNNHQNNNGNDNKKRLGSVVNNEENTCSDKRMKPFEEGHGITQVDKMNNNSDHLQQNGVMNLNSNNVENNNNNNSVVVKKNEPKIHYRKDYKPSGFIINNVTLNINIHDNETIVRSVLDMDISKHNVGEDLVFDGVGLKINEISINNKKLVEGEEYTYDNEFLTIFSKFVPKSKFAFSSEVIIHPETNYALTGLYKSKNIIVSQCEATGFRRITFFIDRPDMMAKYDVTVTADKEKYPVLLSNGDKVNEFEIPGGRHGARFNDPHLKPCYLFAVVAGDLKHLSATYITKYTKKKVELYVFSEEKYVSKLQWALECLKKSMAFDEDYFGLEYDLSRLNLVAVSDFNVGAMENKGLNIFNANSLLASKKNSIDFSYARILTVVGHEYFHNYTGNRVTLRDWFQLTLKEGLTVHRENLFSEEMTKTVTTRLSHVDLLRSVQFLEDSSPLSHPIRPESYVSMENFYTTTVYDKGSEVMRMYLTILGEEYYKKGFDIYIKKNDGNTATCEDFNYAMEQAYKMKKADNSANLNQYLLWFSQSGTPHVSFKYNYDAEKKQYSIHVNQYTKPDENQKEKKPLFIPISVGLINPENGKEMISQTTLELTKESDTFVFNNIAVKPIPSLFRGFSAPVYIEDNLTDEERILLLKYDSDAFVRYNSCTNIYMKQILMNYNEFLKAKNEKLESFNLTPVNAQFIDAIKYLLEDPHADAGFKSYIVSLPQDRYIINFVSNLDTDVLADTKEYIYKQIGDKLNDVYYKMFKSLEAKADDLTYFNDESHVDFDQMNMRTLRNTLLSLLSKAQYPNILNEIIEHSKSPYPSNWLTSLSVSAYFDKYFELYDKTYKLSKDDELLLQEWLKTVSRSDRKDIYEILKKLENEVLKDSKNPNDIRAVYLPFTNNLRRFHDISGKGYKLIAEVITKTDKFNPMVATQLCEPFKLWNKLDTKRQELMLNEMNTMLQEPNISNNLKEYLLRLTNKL

[10] = molecular target: DNA dC->dU-editing enzyme APOBEC-3A (Homo sapiens, UniProt P31941); experiment: Dose Response confirmation of small molecule APOBEC3A DNA Deaminase Inhibitors via a fluorescence-based single-stranded DNA deaminase assay. [Related pubchem assays (depositor defined):AID493011, AID493024]; format: functional
DNA dC->dU-editing enzyme APOBEC-3A, sequence (P31941 whole entry): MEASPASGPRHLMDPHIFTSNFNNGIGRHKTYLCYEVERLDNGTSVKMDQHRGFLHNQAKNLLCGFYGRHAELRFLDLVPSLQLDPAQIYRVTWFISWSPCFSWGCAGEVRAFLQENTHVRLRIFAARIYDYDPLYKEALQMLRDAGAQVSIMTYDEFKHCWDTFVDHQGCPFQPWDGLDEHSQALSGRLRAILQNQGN

[11] = molecular target: DNA dC->dU-editing enzyme APOBEC-3G (Homo sapiens, UniProt Q9HC16); format: functional;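 also: Dose-response counterscreen measuring inhibition of APOBEC3G DNA deaminase activity, run while confirming APOBEC3A inhibitors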
DNA dC->dU-editing enzyme APOBEC-3G, sequence (Q9HC16 whole entry): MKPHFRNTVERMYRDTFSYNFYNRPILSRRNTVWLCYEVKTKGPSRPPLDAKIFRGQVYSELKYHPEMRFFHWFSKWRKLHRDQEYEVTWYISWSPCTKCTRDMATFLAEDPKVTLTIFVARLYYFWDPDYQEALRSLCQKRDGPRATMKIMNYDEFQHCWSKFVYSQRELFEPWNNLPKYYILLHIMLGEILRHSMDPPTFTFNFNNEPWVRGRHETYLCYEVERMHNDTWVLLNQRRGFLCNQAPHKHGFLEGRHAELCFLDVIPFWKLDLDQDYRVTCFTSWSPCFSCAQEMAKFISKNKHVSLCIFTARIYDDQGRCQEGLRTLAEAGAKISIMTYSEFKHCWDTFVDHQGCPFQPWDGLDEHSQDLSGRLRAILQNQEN

For `O=C(NCc1cccs1)N[C@@H](Cc1ccccc1)C(=O)O`, the IC50 [1] was 57.6 µM (active).
In the case of `O=S(=O)(c1cccc(C(F)(F)F)c1)N1CCC(c2cc(-c3cccc4ccccc34)[nH]n2)CC1`, the AC50 [2] is reported as “inconclusive”.
For `NC(N)=Nc1nc2ccc([N+](=O)[O-])cc2[nH]1`, the AC50 [2] was “inconclusive”.
With `Nc1n[nH]c(N)c1N=Nc1ccccc1` the IC50 [1] was 7.03 µM (active) and the AC50 [3] was 6.02 µM (active).
In the case of `COc1ccc(/C=N/NC(=S)Nc2cccc(C(=O)O)c2)cc1`, the IC50 [1] is reported as 19.6 µM (active).
For `COc1ccc(/C=C2\COc3ccccc3C2=O)cc1OC`, the EC50 [4] was 7.42 µM (active), the CC50 [5] was > 20 µM (active) and the CC50 [6] was 17.9 µM (active). For the same molecule, the IC50 [7] was 12.8 µM (active) and the EC50 [8] was 7.29 µM (active).
With `COc1ccc(/C=N/NC2=NC(=O)C(CC(=O)O)S2)cc1OCc1ccc(Cl)cc1` (stereo not drawn) the IC50 [1] was 20.3 µM (active) and the IC50 [9] was 66.7 µM (active).
In the case of `CN1CCN(S(=O)(=O)c2cccc(C(=O)N3CCN(c4ccccc4F)CC3)c2)CC1`, the IC50 [10] is reported as 10.1 µM (active) and the IC50 [11] is reported as 19.2 µM (active).
In the case of `CSc1nc2nc(-c3ccccc3)cc(O)n2n1`, the IC50 [1] is reported as 28.6 µM (active).
In the case of `CCc1ccc(/C=C/c2c[nH]c3ccccc23)[n+](CC)c1`, the IC50 [10] is reported as 2.33 µM (active) and the IC50 [11] is reported as 2.24 µM (active).

Reference: ChEMBL document CHEMBL1201862, “PubChem BioAssay data set” (2004)
